Data set [1] can be described thus: Pharmacokinetic studies in the mouse (i.v. clearance, plasma levels). To be noted: CD-1, plasma, iv; mouse, 25 mg/kg. The class given is in vivo. A digest of the protocol:
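Male CD-1 mice (26-31 g) given 25 mg/kg i.v. via tail vein in 0.02M Tris (2.5 mg/ml), groups of 5 per timepoint from 2 to 120 min. Heparinized plasma deproteinated (perchloric acid or acetonitrile) and analysed by reverse-phase HPLC with UV or MS detection against plasma-spiked calibration (0.5 to 50 μg/ml).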

Data set [2] has as its target T1, ICE (Homo sapiens, UniProt P29466).
T1 sequence (P29466 120-297 limits assumed): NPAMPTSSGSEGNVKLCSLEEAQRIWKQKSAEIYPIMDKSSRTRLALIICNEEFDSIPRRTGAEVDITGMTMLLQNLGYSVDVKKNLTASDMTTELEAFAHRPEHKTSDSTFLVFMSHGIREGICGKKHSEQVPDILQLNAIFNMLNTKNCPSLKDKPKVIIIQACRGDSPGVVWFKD
T1 sequence (P29466 317-404 limits assumed): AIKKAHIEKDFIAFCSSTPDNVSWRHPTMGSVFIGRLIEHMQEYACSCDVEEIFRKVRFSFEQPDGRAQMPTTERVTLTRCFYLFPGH
The data set can be described thus: Enzyme assay with UV-visible substrate (visible ICE assay, Succinyl-Tyr-Val-Ala-Asp-pNitroanilide). It counts as biochemical. The settings on record: Table 5. A digest of the protocol: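 Buffer, ICE and inhibitor in DMSO are combined and held 15 min at room temperature. Succinyl-Tyr-Val-Ala-Asp-pNA is then added and absorbance at 405-603 nm tracked for 20 min at 37° C.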

In data set [3] the test system is IL-1β production, LPS-challenged mice. Briefly: In vivo acute assay for efficacy as anti-inflammatory agent: LPS-induced IL-1β production in mice. Set-up: species or system mouse. The settings on record: Mus musculus, po, LPS challenged mice, compound PO, 50 mg/kg, read-out: percent inhibition of IL-1β production. A digest of the protocol:
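CD1 mice (n=6) were challenged with LPS 20 mg/kg IP and given compound IP in olive oil:DMSO:ethanol (90:5:5) 1 h after LPS, or at the time of challenge for some analogs. Blood was taken 7 h after LPS and serum IL-1β was measured by ELISA. Oral gavage at 50 mg/kg was also tested.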

The nature of data set [4]: In vivo rat clearance assay. The settings on record: plasma, iv, 10-20 mg/kg. A digest of the protocol: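 Rats cannulated a day beforehand received 10–20 mg/kg by intravenous jugular dosing in propylene glycol/saline with 100 mM sodium bicarbonate. Carotid blood was sampled from 0 to 90 min, and plasma was extracted with acetonitrile/0.1% TFA for HPLC quantification. Clearance from non-linear regression pharmacokinetic analysis.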

Read-outs that look alike come from different tables or passages of the source.

Take `O=C[C@H](CC(=O)O)NC(=O)[C@@H]1CCCN2C(=O)CC[C@H](NC(=O)c3cc4ccccc4[nH]3)C(=O)N12` [Compound 475, [3S(1S,9S)]3-[6,10-Dioxo-9-(indol-2-oylamino)-1,2,3,4,7,8,9,10-octahydro-6H-pyridazino[1,2-a][1,2]diazepine-1-carboxamido]-4-oxobutanoic acid]: the melting point was 150 °C. The molecule further showed a clearance in data set [1] of 31 mL/min/kg. The same molecule had a Ki in data set [2] of 5.5 nM. Besides, in data set [3] (0 h, administered 0 h relative to time of LPS challenge), the inhibition at 50 mg/kg is 15%. Also, in data set [3] (2 h, administered −2 h relative to time of LPS challenge), the inhibition at 50 mg/kg was found to be 0%. For the same molecule, in data set [4], the clearance was determined as 21 mL/min/kg.

These data come from patent US20120165319A1, “INHIBITORS OF INTERLEUKIN-1 BETA CONVERTING ENZYME” (VERTEX PHARMACEUTICALS INCORPORATED, priority 1995, published 2012).
